Data: US9591852B2, “Biofilm disruptive compositions” (McNeil-PPC, Inc., priority 2009, dated 2017)
Like-named read-outs stand apart in the source and are kept apart here.

Test system: 48-hour salivary biofilm
Assay: Biofilm disruption screening assay: 48-hour salivary biofilm on polystyrene peg plate, ATP bioluminescence of bacteria remaining
Assay type: cell-based
Conditions: for log RLU compound: treated twenty minutes, N=8
Description: (§1) A 48-hour salivary biofilm was grown on a polystyrene peg plate substrate (96 pegs, N=8 per test group). The pegs were subsequently treated for twenty minutes with each of the long chain alcohols formulations described above, as well as the negative control. After treatment, viable bacteria remaining on the substrate were removed by sonication using a Ultrasonic processor XL by Misonix (Farmingdale, N.Y.), lysed with Celsis Luminex (Celsis Rapid Detection Rapiscreen (Celsis International PLC, Chicago)) and ATP from the bacteria were measured using a bioluminescence marker Celsis LuminATE (Celsis Rapid Detection Rapiscreen (Celsis International PLC, Chicago)). Data was reported in log RLU (relative light units), where decreasing log RLUs indicates fewer bacteria remaining on the substrate and in M-factor units where M-factor is the difference between the log RLU values of the compound tested and the negative control.
as §1, with “marker.” for “marker”
To determine the concentration dependence of biofilm disruptor activity, a series of formulations was prepared with cis-2-nonen-1-ol concentration ranging from 0.0005% to 0.1%. These formulations were tested against the negative control in the biofilm disruption screening assay described in Examples 1 and 2. Data was reported in log RLU (relative light units) where decreasing log RLUs indicates fewer bacteria remaining on the substrate and in M-factor units where M-factor is the difference between the log RLU values of the compound tested and the negative control. […]

[1] = 20 min, alcohol 0.05% (w/v), twenty minutes, difference between log RLU of compound and negative control, read-out: M-factor
[2] = unsaturated long chain alcohol 0.05% (w/v) in water/ethanol/Pluronic F-127, decreasing log RLU = fewer bacteria remaining
[3] = 20 min, aldehyde 0.05% (w/v), twenty minutes, difference between log RLU of compound and negative control, read-out: M-factor
[4] = unsaturated long chain aldehyde 0.05% (w/v) in water/ethanol/Pluronic F-127

| SMILES | log reduction at 0.05 % [1] | log RLU compound [2] [log RLU] | log reduction at 0.05 % [3] | log RLU compound [4] [log RLU] | further results |
| --- | --- | --- | --- | --- | --- |
| C=CC(O)CCCCCCC (stereo not drawn) [1-decen-3-ol] | 0.86 | 4.46 |  |  |  |
| CC(C)=CCCC(C)C=O (stereo not drawn) [2,6-dimethyl-5-hepten-1-al] |  |  | 0.21 | 5.07 |  |
| CCC/C=C/C=O [trans-2-hexenal] |  |  | 0.19 | 5.39 |  |
| CCCC/C=C/C=O [trans-2-heptenal] |  |  | 0.06 | 5.52 |  |
| CCCCCC/C=C/C=O [trans-2-nonenal] |  |  | 0.92 | 4.66 |  |
| CC/C=C\CCCCO [cis-5-octen-1-ol] | 0.31 | 5.01 |  |  |  |
| CC/C=C\CCCCCO [cis-6-nonen-1-ol] | 0.72 | 4.60 |  |  |  |
| CCCCC/C=C/CO [trans-2-octen-1-ol] | 0.69 | 4.89 |  |  |  |
| CCC/C=C\CO [cis-2-hexen-1-ol] | 0.11 | 5.21 |  |  |  |
| CCCCCCCCC/C=C/C=O [trans-2-dodecenal] |  |  | 1 | 4.58 |  |
| CCCCCCCCC/C=C/CO [trans-2-dodecen-1-ol] | 0.88 | 4.44 |  |  |  |
| CCC/C=C/CO [trans-2-hexen-1-ol] | 0.12 | 5.20 |  |  |  |
| CC/C=C\CCO [cis-3-hexen-1-ol] | 0.06 | 5.22 |  |  |  |
| CCCCC/C=C/C=O [trans-2-octenal] |  |  | 0.32 | 5.26 |  |
| CC/C=C\CCC=O [cis-4-hepten-1-al] |  |  | -0.04 | 5.14 |  |
| C=CC(O)CCCCC (stereo not drawn) [1-octen-3-ol] | 0.33 | 4.99 |  |  |  |
| CCCCC/C=C\CCC=O [cis-4-decenal] |  |  | 0.99 | 4.59 |  |
| CCCCCC/C=C\CO [cis-2-nonen-1-ol] | 0.76 | 4.57 |  |  | log reduction at 0.1 % (20 min, formulation A, cis-2-nonen-1-ol 0.1% (w/v), vs negative control log RLU 5.63, read-out: M-factor): 0.82; log reduction at 0.05 % (20 min, formulation B, cis-2-nonen-1-ol 0.05% (w/v), vs negative control log RLU 5.63, read-out: M-factor): 0.82; log reduction at 0.025 % (20 min, formulation C, cis-2-nonen-1-ol 0.025% (w/v), vs negative control log RLU 5.63, read-out: M-factor): 0.35; log reduction at 0.01 % (20 min, formulation D, cis-2-nonen-1-ol 0.01% (w/v), vs negative control log RLU 5.63, read-out: M-factor): 0.04; log reduction at 0.005 % (20 min, formulation E, cis-2-nonen-1-ol 0.005% (w/v), vs negative control log RLU 5.63, read-out: M-factor): -0.06; log reduction at 0.001 % (20 min, formulation F, cis-2-nonen-1-ol 0.001% (w/v), vs negative control log RLU 5.63, read-out: M-factor): -0.07; log reduction at 0.0005 % (20 min, formulation G, cis-2-nonen-1-ol 0.0005% (w/v), vs negative control log RLU 5.63, read-out: M-factor): -0.09; log RLU (formulation A, cis-2-nonen-1-ol 0.1% (w/v)): 4.81 log RLU; log RLU (formulation B, cis-2-nonen-1-ol 0.05% (w/v)): 4.82 log RLU; log RLU (formulation C, cis-2-nonen-1-ol 0.025% (w/v)): 5.28 log RLU; log RLU (formulation D, cis-2-nonen-1-ol 0.01% (w/v)): 5.59 log RLU; log RLU (formulation E, cis-2-nonen-1-ol 0.005% (w/v)): 5.69 log RLU; log RLU (formulation F, cis-2-nonen-1-ol 0.001% (w/v)): 5.70 log RLU; log RLU (formulation G, cis-2-nonen-1-ol 0.0005% (w/v)): 5.72 log RLU |
| CCCCCCC/C=C/C=O [trans-2-decenal] |  |  | 0.95 | 4.63 |  |
| C=CCCCCCCCCO [9-decen-1-ol] | 0.97 | 4.35 |  |  |  |
| CCCCC/C=C\CCO [cis-3-nonen-1-ol] | 0.76 | 4.56 |  |  |  |
| CC/C=C\CCCCCC=O [cis-7-decenal] |  |  | 0.33 | 5.25 |  |
| CC/C=C\CCCCC=O [cis-6-nonenal] |  |  | 0.44 | 4.84 |  |
| CCCCCCC/C=C/CO [trans-2-decen-1-ol] | 1.45 | 4.13 |  |  |  |
| CCCCCC/C=C/CO [trans-2-nonen-1-ol] | 0.45 | 4.83 |  |  |  |
| CCCCC/C=C\CCCO [cis-4-decen-1-ol] | 0.62 | 4.71 |  |  |  |
| CCCCCCCC/C=C/C=O [trans-2-undecenal] |  |  | 0.83 | 4.49 |  |
| CCC/C=C\CCO [cis-3-hepten-1-ol] | 0.25 | 5.07 |  |  |  |
| CCCCCCCC/C=C/CO [trans-2-undecen-1-ol] | 0.56 | 4.72 |  |  |  |
